Measurements published in patent US10723723B2, “Substituted bicycle heterocyclic derivatives useful as ROMK channel inhibitors” (BRISTOL-MYERS SQUIBB COMPANY, priority 2016, dated 2020).

Experiments:
hERG channels = hERG channels (Homo sapiens (Human), UniProt Q12809); test: hERG Manual Patch Clamp Assay (HEK 293 cells stably expressing hERG channels); type: cell-based; details: human, HEK 293 cells stably expressing hERG channels, pH 7.4
Method: hERG electrophysiology assay: The experimental compounds were assessed for hERG activity on HEK 293 cells stably expressing hERG channels using patch clamp technique. Coverslips plated with hERG expressing cells were placed in the experimental chamber and were perfused with a solution composed of (in mM): 140 NaCl, 4 KCl, 1.8 CaCl2), 1 MgCl2, 10 Glucose, 10 HEPES (pH 7.4, NaOH) at room temperature. Borosilicate patch pipettes had tip resistances of 2-4 Mohms when filled with an internal solution containing: 130 KCl, 1 MgCl2, 1 CaCl2), 10 EGTA, 10 HEPES, 5 ATP-K2 (pH 7.2, KOH). The cells were clamped at −80 mV in whole cell configuration using an Axopatch 200B (Axon instruments, Union City, Calif.) patch clamp amplifier controlled by pClamp (Axon instruments) software. Upon formation of a gigaseal, the following voltage protocol was repeatedly (0.05 Hz) applied to record tail currents: depolarization step from −80 mV to +20 mV for 2 seconds followed by a hyperpolarization step to −65 mV (3 seconds) to elicit tail currents. Compounds were applied after stabilization of tail current. First, tail currents were recorded in presence of extracellular solution alone (control) and subsequently, in extracellular solution containing increasing compound concentrations. Each compound concentration was applied for 2-5 minutes. The percentage inhibition at each concentration was calculated as reduction in peak tail current with respect to the peak tail current recorded in the presence of control solution. Data analysis was performed in a custom made template. The percent inhibitions at different concentrations were plotted to obtain a concentration response curve, which was subsequently fitted with a four parameter equation to calculate hERG IC50 value.
A lower hERG % Inhibition value indicates less inhibition of the hERG current

hROMK (human Kir1.1) = hROMK (human Kir1.1) (Homo sapiens (Human), UniProt P48048); test: Thallium Flux Assay (FluxOR, CHO T-Rex hROMK stable cell line); type: cell-based; details: CHO T-Rex hROMK cells, 10-point concentration response curve; read-out: Human ROMK TH Flux IC50
Sequence of hROMK (human Kir1.1) (P48048 whole entry): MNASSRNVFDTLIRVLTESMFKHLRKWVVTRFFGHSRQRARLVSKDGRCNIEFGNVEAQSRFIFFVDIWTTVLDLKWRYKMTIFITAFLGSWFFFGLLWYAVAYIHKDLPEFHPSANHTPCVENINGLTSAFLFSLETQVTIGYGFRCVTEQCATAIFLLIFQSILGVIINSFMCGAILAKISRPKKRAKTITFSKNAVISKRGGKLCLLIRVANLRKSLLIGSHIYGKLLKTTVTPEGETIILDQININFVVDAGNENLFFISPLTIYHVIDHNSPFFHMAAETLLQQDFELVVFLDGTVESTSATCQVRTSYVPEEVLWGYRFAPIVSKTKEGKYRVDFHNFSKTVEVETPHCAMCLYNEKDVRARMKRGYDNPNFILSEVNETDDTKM
Method: Solutions and reagents: Thallium flux assay was performed using FluxOR kit (F10017, Life Technologies). Loading buffer, assay buffer and stimulus buffer were prepared using kit components.
To prepare 10 ml of loading buffer: 10 μl of FluxOR dye (reconstituted in DMSO) was first added to 100 μl of powerload concentrate and this mix along with 100 μl of Probenicid (100×) was then added to 9.79 ml of HBSS. […] Stimulus buffer was composed of 15 mM Tl2SO4, 0.75 mM K2SO4 in FluxOR chloride free buffer (diluted to 1× using deionized water). The final concentration of Tl2SO4 and K2SO4 in the assay plate was 3 mM and 0.15 mM, respectively.
Plating and induction of cells: The CHO T-Rex hROMK (human Kir1.1) stable cell line was maintained in Ham's F12 media supplemented with 10% FBS, 1% Penicillin-Streptomycin, 500 μg/ml Zeocin and 10 μg/ml Blasticidin at 37° C. in a 5% CO2 incubator. […] The cell suspension was centrifuged at 1200 rpm for 5 min. After discarding the supernatant, the cells were resuspended in fresh growth media and cell concentration was determined using a hemocytometer. […] The assay plate was kept at 37° C. in a 5% CO2 incubator.
Assay protocol: On the day of experiment, media was removed and loading buffer was added (30 μl/well) to the assay plate. The cells were incubated in the loading buffer for 30 minutes at 37° C. The loading buffer was then replaced by assay buffer (30 μl/well) followed by addition of test compounds or controls. […] Each well was read for 90 sec at 2 sec interval and the stimulus buffer was added after 20 seconds of baseline recording. The final DMSO concentration was either 0.5 or 1% in the assay plate. Positive and negative controls were defined by addition of DMSO or 3 μM of a standard ROMK inhibitor, respectively, to the wells instead of a test compound.
A 10-point concentration response curve was used to estimate the IC50 value of test compounds.

Sequence of hERG channels (Q12809 whole entry): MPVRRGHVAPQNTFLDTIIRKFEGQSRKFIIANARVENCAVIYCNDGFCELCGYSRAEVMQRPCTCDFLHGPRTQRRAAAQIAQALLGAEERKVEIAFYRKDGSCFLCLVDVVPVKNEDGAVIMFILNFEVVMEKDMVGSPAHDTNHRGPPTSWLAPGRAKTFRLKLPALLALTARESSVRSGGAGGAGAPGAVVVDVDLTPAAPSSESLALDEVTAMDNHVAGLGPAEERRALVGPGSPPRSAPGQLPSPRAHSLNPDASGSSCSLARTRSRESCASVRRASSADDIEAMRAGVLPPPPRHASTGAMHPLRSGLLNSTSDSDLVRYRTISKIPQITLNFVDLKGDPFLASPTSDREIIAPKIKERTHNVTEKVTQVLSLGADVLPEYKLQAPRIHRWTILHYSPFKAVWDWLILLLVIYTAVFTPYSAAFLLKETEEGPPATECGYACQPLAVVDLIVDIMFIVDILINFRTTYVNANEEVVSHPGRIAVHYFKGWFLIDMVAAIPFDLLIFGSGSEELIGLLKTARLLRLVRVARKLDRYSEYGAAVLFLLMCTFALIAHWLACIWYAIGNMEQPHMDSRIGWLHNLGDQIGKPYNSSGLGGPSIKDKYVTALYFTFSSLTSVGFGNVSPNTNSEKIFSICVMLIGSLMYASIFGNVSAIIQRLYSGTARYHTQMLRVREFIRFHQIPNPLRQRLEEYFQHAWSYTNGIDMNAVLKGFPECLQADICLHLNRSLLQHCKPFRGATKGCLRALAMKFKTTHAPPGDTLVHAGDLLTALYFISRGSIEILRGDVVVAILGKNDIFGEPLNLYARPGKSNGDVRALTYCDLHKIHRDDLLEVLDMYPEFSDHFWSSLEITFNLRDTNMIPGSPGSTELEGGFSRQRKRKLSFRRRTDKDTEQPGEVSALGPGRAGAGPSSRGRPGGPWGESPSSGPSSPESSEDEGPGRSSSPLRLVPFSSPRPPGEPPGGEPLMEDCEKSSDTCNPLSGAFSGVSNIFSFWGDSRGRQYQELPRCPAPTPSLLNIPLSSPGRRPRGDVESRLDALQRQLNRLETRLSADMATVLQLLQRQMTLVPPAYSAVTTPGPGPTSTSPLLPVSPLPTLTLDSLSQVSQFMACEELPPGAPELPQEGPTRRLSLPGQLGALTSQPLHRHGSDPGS

Structure (SMILES)	inhibition at 1 µM (hERG channels) [%]	IC50 (hROMK (human Kir1.1)) [nM]
COc1c(CNC[C@H](O)c2ccc3c(c2C)COC3=O)cnn1-c1cc(C)c(C#N)cn1 [Example 35, (R)-6-(4-(((2-hydroxy-2-(4-methyl-1-oxo-1,3-dihydroisobenzofuran-5-yl)ethyl)amino)methyl)-5-methoxy-1H-pyrazol-1-yl)-4-methylnicotinonitrile]	91	1
CC(=O)N[C@@H](CNCc1cnn(-c2cc(C)c(C#N)cn2)c1)c1ccc2c(c1C)COC2=O [Example 39, (R)—N-(2-(((1-(5-cyano-4-methylpyridin-2-yl)-1H-pyrazol-4-yl)methyl)amino)-1-(4-methyl-1-oxo-1,3-dihydroisobenzofuran-5-yl)ethyl)acetamide]	2.6	58
Cc1c([C@@H](O)CNCc2cnn(-c3cnc(C#N)cn3)c2)ccc2c1COC2=O [Example 41, (R)-5(4-(((2-hydroxy-2-(4-methyl-1-oxo-1,3-dihydroisobenzofuran-5-yl)ethyl)amino)methyl)-1H-pyrazol-1-yl)pyrazine-2-carbonitrile]	50	32
Cc1c(-c2cnn(CCNC[C@H](O)c3ccc4c(c3C)COC4=O)c2)ccc2c1COC2=O [Example 43, (R)-5-(l-hydroxy-2-((2-(4-(4-methyl-1-oxo-1,3-dihydroisobenzofuran-5-yl)-1H-pyrazol-1-yl)ethyl)amino)ethyl)-4-methylisobenzofuran-1(3H)-one]	7.1	66
Cc1c([C@@H](O)CNCc2cnc(-n3cnc(C#N)c3)nc2)ccc2c1COC2=O [Example 45, (R)-1-(5-(((2-hydroxy-2-(4-methyl-1-oxo-1,3-dihydroisobenzofuran-5-yl)ethyl)amino)methyl)pyrimidin-2-yl)-1H-imidazole-4-carbonitrile]	74	12
COc1nc(-n2cc(CNC[C@H](O)c3ccc4c(c3C)COC4=O)cn2)ccc1C#N [Example 48, (R)-6-(4-(((2-hydroxy-2-(4-methyl-1-oxo-1,3-dihydroisobenzofuran-5-yl)ethyl)amino)methyl)-1H-pyrazol-1-yl)-2-methoxynicotinonitrile]	67	14
Cc1cnc(-n2cc(CNC[C@H](O)c3ccc4c(c3C)COC4=O)cn2)cc1C#N [Example 49, (R)-2-(4-(((2-hydroxy-2-(4-methyl-1-oxo-1,3-dihydroisobenzofuran-5-yl)ethyl)amino)methyl)-1H-pyrazol-1-yl)-5-methylisonicotinonitrile]	18	32
COc1cc(-n2cc(CNC[C@H](O)c3ccc4c(c3C)COC4=O)nc2C)ncc1C#N [Example 52, (R)-6-(4-(((2-hydroxy-2-(4-methyl-1-oxo-1,3-dihydroisobenzofuran-5-yl)ethyl)amino)methyl)-2-methyl-1H-imidazol-1-yl)-4-methoxynicotinonitrile]	13	180
COc1cc(-n2ncc3c(CNC[C@H](O)c4ccc5c(c4C)COC5=O)cccc32)ncc1C#N [Example 55]	69	78
Cc1cc(-n2cc(CNC[C@H](NCCO)c3ccc4c(c3C)COC4=O)cn2)ncc1C#N [Example 56, (R)-6-(4-(((2-((2-hydroxyethyl)amino)-2-(4-methyl-1-oxo-1,3-dihydroisobenzofuran-5-yl)ethyl)amino)methyl)-1H-pyrazol-1-yl)-4-methylnicotinonitrile]	3.7	80
COCCN[C@@H](CNCc1cnn(-c2cc(C)c(C#N)cn2)c1)c1ccc2c(c1C)COC2=O [Example 57, (R)-6-(4-(((2-((2-methoxyethyl)amino)-2-(4-methyl-1-oxo-1,3-dihydroisobenzofuran-5-yl)ethyl)amino)methyl)-1H-pyrazol-1-yl)-4-methylnicotinonitrile]	35	150
COC(=O)N[C@@H](CNCc1cnn(-c2cc(C)c(C#N)cn2)c1)c1ccc2c(c1C)COC2=O [Example 60, methyl (R)-(2-(((1-(5-cyano-4-methylpyridin-2-yl)-1H-pyrazol-4-yl)methyl)amino)-1-(4-methyl-1-oxo-1,3-dihydroisobenzofuran-5-yl)ethyl)carbamate]	12	72
Cc1cc(-n2cnc(CNC[C@H](O)c3ccc4c(c3C)COC4=O)c2)nc(C)c1C#N [Example 68, (R)-6-(4-(((2-hydroxy-2-(4-methyl-1-oxo-1,3-dihydroisobenzofuran-5-yl)ethyl)amino)methyl)-1H-imidazol-1-yl)-2,4-dimethylnicotinonitrile]	17	38
COc1cc(-n2cc(CNC[C@H](O)c3ccc4c(c3C)COC4=O)cn2)nc(C)c1C#N [Example 70, (R)-6-(4-(((2-hydroxy-2-(4-methyl-1-oxo-1,3-dihydroisobenzofuran-5-yl)ethyl)amino)methyl)-1H-pyrazol-1-yl)-4-methoxy-2-methylnicotinonitrile]	27	19
Cc1cc(-n2cc(CNC[C@H](O)c3ccc4c(c3C)COC4=O)cn2)nc(C)c1C#N [Example 71, (R)-6-(4-(((2-hydroxy-2-(4-methyl-1-oxo-1,3-dihydroisobenzofuran-5-yl)ethyl)amino)methyl)-1H-pyrazol-1-yl)-2,4-dimethylnicotinonitrile]	39	22
COc1nc(-n2cc(CNC[C@H](O)c3ccc4c(c3C)COC4=O)cn2)cc(C)c1C#N [Example 72, (R)-6-(4-(((2-hydroxy-2-(4-methyl-1-oxo-1,3-dihydroisobenzofuran-5-yl)ethyl)amino)methyl)-1H-pyrazol-1-yl)-2-methoxy-4-methylnicotinonitrile]	35	14
Cc1cc(-n2cc(CNC[C@H](O)c3ccc4c(c3C)COC4=O)cn2)cnc1C#N [Example 73, (R)-5-(4-(((2-hydroxy-2-(4-methyl-1-oxo-1,3-dihydroisobenzofuran-5-yl)ethyl)amino)methyl)-1H-pyrazol-1-yl)-3-methylpicolinonitrile]	31	36
Cc1cc(-n2cc(CNC[C@H](O)c3ccc4c(c3C)COC4=O)c(C)n2)ncc1C#N [Example 74, (R)-6-(4-(((2-hydroxy-2-(4-methyl-1-oxo-1,3-dihydroisobenzofuran-5-yl)ethyl)amino)methyl)-3-methyl-1H-pyrazol-1-yl)-4-methylnicotinonitrile]	32	59
Cc1c([C@@H](O)CNCc2cnn(-c3ccc4c(c3C)COC4=O)c2)ccc2c1COC2=O [Example 75, (R)-5-(1-hydroxy-2-(((1-(4-methyl-1-oxo-1,3-dihydroisobenzofuran-5-yl)-1H-pyrazol-4-yl)methyl)amino)ethyl)-4-methylisobenzofuran-1(3H)-one]	4.3	65
COc1cc(-c2ccc(CNC[C@H](O)c3ccc4c(c3C)COC4=O)c(OC)n2)ncc1C#N [Example 82, (R)-5′-(((2-hydroxy-2-(4-methyl-1-oxo-1,3-dihydroisobenzofuran-5-yl)ethyl)amino)methyl)-4,6′-dimethoxy-[2,2′-bipyridine]-5-carbonitrile]	44	31
Cc1ncn(-c2ncc(CNC[C@H](O)c3ccc4c(c3C)COC4=O)cn2)c1C [Example 88, (R)-5-(2-(((2-(4,5-dimethyl-1H-imidazol-1-yl)pyrimidin-5-yl)methyl)amino)-1-hydroxyethyl)-4-methylisobenzofuran-1(3H)-one]	3.6	42
Cc1cn(-c2ccc(CNC[C@H](O)c3ccc4c(c3C)COC4=O)cn2)nc1C#N [Example 92, (R)-1-(5-(((2-hydroxy-2-(4-methyl-1-oxo-1,3-dihydroisobenzofuran-5-yl)ethyl)amino)methyl)pyridin-2-yl)-4-methyl-1H-pyrazole-3-carbonitrile]	24	6.4
Cc1cc(-n2cc(CNC[C@H](O)c3ccc4c(c3C)COC4=O)c(C(F)F)n2)ncc1C#N [Example 93, (R)-6-(3-(difluoromethyl)-4-(((2-hydroxy-2-(4-methyl-1-oxo-1,3-dihydroisobenzofuran-5-yl)ethyl)amino)methyl)-1H-pyrazol-1-yl)-4-methylnicotinonitrile]	29	15
Cc1cn(-c2ncc(CNC[C@H](O)c3ccc4c(c3C)COC4=O)cn2)nc1C#N [Example 94, (R)-1-(5-(((2-hydroxy-2-(4-methyl-1-oxo-1,3-dihydroisobenzofuran-5-yl)ethyl)amino)methyl)pyrimidin-2-yl)-4-methyl-1H-pyrazole-3-carbonitrile]	13	56
Cc1c([C@@H](O)CNCc2cn(-c3ccc4oc(=O)n(C)c4c3)nc2C(F)(F)F)ccc2c1COC2=O [Example 95, (R)-5-(4-(((2-hydroxy-2-(4-methyl-1-oxo-1,3-dihydroisobenzofuran-5-yl)ethyl)amino)methyl)-3-(trifluoromethyl)-1H-pyrazol-1-yl)-3-methylbenzo[d]oxazol-2(3H)-one]	11	56
Cc1c([C@@H](O)CNCc2cnc(-n3cnc(C(F)(F)F)c3)nc2)ccc2c1COC2=O [Example 96, (R)-5-(1-hydroxy-2-(((2-(4-(trifluoromethyl)-1H-imidazol-1-yl)pyrimidin-5-yl)methyl)amino)ethyl)-4-methylisobenzofuran-1(3H)-one]	19	62
COc1nn(-c2ccc(CNC[C@H](O)c3ccc4c(c3C)COC4=O)cn2)cc1C#N [Example 104, (R)-1-(5-(((2-hydroxy-2-(4-methyl-1-oxo-1,3-dihydroisobenzofuran-5-yl)ethyl)amino)methyl)pyridin-2-yl)-3-methoxy-1H-pyrazole-4-carbonitrile]	42	9.4
